The results in this text go back to patent publication US20140322744A1, “CLONABLE TAG FOR CORRELATIVE LIGHT AND ELECTRON MICROSCOPY LABELING” (INSTITUT CURIE, priority 2011, published 2014).

Where only a bound is given, the exact number is not on record here.

The test system of this data set is E. coli K-12. As to the kind of experiment: Minimal Inhibitory Concentration (MIC) growth test of EuCl3. The data set is classed as cell-based. The text has this:
The inventors were first interested in evaluating Eu toxicity in their working conditions. To this purpose, they have submitted E. coli to a serial of growing tests called Minimal Inhibitory Concentration (MIC). This test aimed to determine the lowest concentration able to inhibit the bacteria growth. It consisted in growing bacteria in presence of several concentrations of the tested compound.
Serial dilution series of the substance to be tested were inoculated with bacteria at 0.3 D.O550 nm diluted 1/16000 in culture medium. D.O550 nm was followed until stationary phase. Minimal concentration of the test substance preventing stationary phase was considered as MIC.
For the Eu MIC determination, the inventors have tested EuCl3 concentrations between 100 μM and 2 mM. E. coli K-12 and pBAD arabinose inducible MTtag transformed E. coli K-12 were tested. E. coli K12 were transformed by electroporation with the pBAD plasmid down control of BAD promoter (Guzman, L. M., et al. J Bacteriol 177, 4121-4130 (1995); Khlebnikov, A. & Keasling, J. D. Biotechnol. Prog. 18, 672-674 (2002)). Bacteria pre-cultures were produced at 37° C. in Luria-Bertani (LB) medium with added ampicillin ([…]) in transformed strain. The pre-cultures were used to inoculate tubes of minimum media M9 (with or without ampicillin) until exponential phase D.O550 nm≈0.3. Then, 1/16000 dilutions were prepared in M9 medium (with or without ampicillin). 1 μl of the diluted bacteria were added to 200 μl of M9-EuCl3 at different concentrations in 96 wells plates. Bacterial grow was followed until stationary phase. The D.O550 nm was measured on a Tecan Infinite 200 PRO.

For `[Cl][Eu]([Cl])[Cl]` [EuCl3], where the note is “E. coli K-12 MG1655 growth curve, several concentrations of Europium (FIG. 1)”, the “Effect on bacterial growth” value is “doesn't have a dramatic negative effect on bacterial growth”. Where the note is “E. coli K-12 and MTtag transformed E. coli K-12, M9 medium, 100 μM to 2 mM tested, repeated 10 times”, the “MIC: EuCl3 concentration until which bacteria is viable” value was “higher than 2 mM”. Moreover, the “Precipitation above maximal concentration tested” value (M9 medium, maximal concentration tested 2 mM) was “precipitates at higher concentrations”. Further, under “does not impact bacterial viability”, the “EuCl3 concentration after which growing slow down is observed” value is given as over 1 mM. For the same compound, for the setting “transformed or not”, the “Toxicity for E. coli K-12” value was “not toxic”.
